Test results from US11827628B2, “Compositions and methods for inhibition of the JAK pathway” (Rigel Pharmaceuticals, Inc., priority 2005, dated 2023).
Like-named read-outs stand apart in the source and are kept apart here.

Tests used:
[1] = system: IL-4 stimulated expression of CD23 in human Ramos B cells (JAK-1 and JAK-3); assay: Assay for Ramos B-Cell Line Stimulated with IL-4 (CD23 upregulation, FACS); type: cell-based; details: Ramos B-cell line stimulated with IL-4; CD23 expression by FACS; read-out: IC50, Example 41
Procedure, shortened: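 Human Ramos B cells (5×10^4 per point, RPMI 5% serum) pre-incubated 1 h at 37 °C with compound or DMSO, then stimulated with IL-4 at 50 units/mL final for 20-24 h. CD23 upregulation measured by anti-CD23-PE staining and flow cytometry; IC50 derived.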

[2] = system: up-regulation of ICAM-1 (CD54) by IFNγ in U937 human monocytic cells; assay: U937 IFNγ ICAM1 FACS Assay; type: cell-based; details: ICAM-1 expression by FACS, read-out: IC50, Example 44
Procedure, shortened: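 U937 cells in 10% FCS RPMI were preincubated 30 min at 37 °C with an 8-point, 3-fold compound dilution series in duplicate, then stimulated with IFNγ for 18–24 h. Surface ICAM-1 was stained with APC anti-ICAM-1 and read by flow cytometry as geometric mean on live-gated cells. EC50 was derived.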

[3] = U937 cells stimulated with IFNγ

CNS(=O)(=O)c1cc(Nc2ncc(F)c(Nc3cccc(OCc4nc(C)no4)c3)n2)ccc1C [Compound I-255, 5-Fluoro-N2-[3-(N-methylaminosulfony)-4-methylphenyl]-N4-[3-(3-methyl-1,2,4-oxadiazol-5-yl)methyleneoxyphenyl]-2,4-pyrimidinediamine]
IC50 [1]: 256 nM | IC50 [2, 3]: 5520 nM

Cc1noc(COc2ccc(Nc3nc(Nc4cccc(S(N)(=O)=O)c4)ncc3F)cc2)n1 [Compound I-258, N2-(3-Aminosulfonylphenyl)-5-fluoro-N4-[4-(3-methyl-1,2,4-oxadiazol-5-yl)methyleneoxyphenyl]-2,4-pyrimidinediamine]
IC50 [1]: 28 nM | IC50 [2, 3]: 324 nM

Cc1cc(COc2ccc(Nc3nc(Nc4ccc(F)c(S(N)(=O)=O)c4)ncc3F)cc2)no1 [Compound I-233, N2-(3-Aminosulfonyl-4-fluorophenyl)-5-fluoro-N4-[4-(5-methylisoxazol-3-yl)methyleneoxyphenyl]-2,4-pyrimidinediamine]
IC50 [1]: 148 nM | IC50 [2, 3]: 1750 nM

Cc1ccc(Nc2ncc(F)c(Nc3ccc(CCC#N)cc3)n2)cc1S(N)(=O)=O [III-15, N2-(3-Aminosulfonyl-4-methylphenyl)-N4-[4-(cyanoethylene)phenyl]-5-fluoro-2,4-pyrimidinediamine]
IC50 [1]: 76 nM | IC50 [2, 3]: 553 nM

Cc1noc(COc2cccc(Nc3nc(Nc4ccc(C)c(S(N)(=O)=O)c4)ncc3F)c2)n1 [Compound I-254, N2-(3-Aminosulfonyl-4-methylphenyl)-5-fluoro-N4-[3-(3-methyl-1,2,4-oxadiazol-5-yl)methyleneoxyphenyl]-2,4-pyrimidinediamine]
IC50 [1]: 155 nM | IC50 [2, 3]: 1820 nM

Cc1noc(COc2ccc(Nc3nc(Nc4ccc(S(N)(=O)=O)cc4)ncc3F)cc2)n1 [Compound I-268, N2-(4-Aminosulfonylphenyl)-5-fluoro-N4-(4-[3-methyl-1,2,4-oxadiazol-5-yl]methyleneoxyphenyl)-2,4-pyrimidinediamine]
IC50 [1]: 60.7 nM | IC50 [2, 3]: 219 nM

NS(=O)(=O)c1cccc(Nc2ncc(F)c(Nc3ccc(Cc4ccncc4)cc3)n2)c1 [III-70, N2-(3-Aminosulfonylphenyl)-5-fluoro-N4-[4-(4-pyridinylmethyl)phenyl]-2,4-pyrimidinediamine]
IC50 [1]: 64.5 nM | IC50 ([2]; Homo sapiens, U-937, U937 cells stimulated with IFNγ): 1650 nM

N#CCc1ccc(Nc2nc(Nc3ccc(Cl)c(S(N)(=O)=O)c3)ncc2F)cc1 [III-8, N2-(3-Aminosulfonyl-4-chloro)phenyl-N4-(4-cyanomethyl)phenyl-5-fluoro-2,4-pyrimidinediamine]
IC50 [1]: 138 nM | IC50 [2, 3]: 2250 nM

CNS(=O)(=O)c1cc(Nc2ncc(F)c(Nc3ccc(OCc4cc(C)on4)cc3)n2)ccc1C [Compound I-235, 5-Fluoro-N2-[3-(N-methyl)aminosulfonyl-4-methylphenyl]-N4-[4-(5-methylisoxazol-3-yl)methyleneoxyphenyl]-2,4-pyrimidinediamine]
IC50 [1]: 178 nM | IC50 [2, 3]: 2560 nM

Cc1cc(COc2ccc(Nc3nc(Nc4ccc(F)c(S(N)(=O)=O)c4)ncc3F)cc2C)no1 [Compound I-237, N2-(3-Aminosulfonyl-4-fluorophenyl)-5-fluoro-N4-[3methyl-4-(5-methylisoxazol-3-yl)methyleneoxyphenyl]-2,4-pyrimidinediamine]
IC50 [1]: 147 nM | IC50 [2, 3]: 3580 nM

Cc1ccc(Nc2ncc(F)c(Nc3ccc(OC4CCCN(C)C4)c(Cl)c3)n2)cc1S(N)(=O)=O (racemic) [II-3, Racemic N2-(3-aminosulfonyl-4-methylphenyl)-N4-{3-chloro-4-[(1-methylpiperidin-3-yl)oxy]phenyl}-5-fluoro-2,4-pyrimidinediamine]
IC50 [1]: 84 nM | IC50 [2, 3]: 6500 nM

N2-(3-Aminocarbonyl-5-methylphenyl)-5-fluoro-N2-[4-(1-methylpyrazol-5-yl)amidophenyl)-2,4-pyrimidinediamine [II-21]
IC50 [1]: 698 nM | IC50 [2, 3]: 41700 nM

N#CCc1ccc(Nc2nc(Nc3ccc(F)c(S(N)(=O)=O)c3)ncc2F)cc1 [III-10, N2-(3-Aminosulfonyl-4-fluoro)phenyl-N4-(4-cyanomethyl)phenyl-5-fluoro-2,4-pyrimidinediamine]
IC50 [1]: 225 nM | IC50 [2, 3]: 3520 nM

Cc1nc(COc2ccc(Nc3nc(Nc4cccc(S(N)(=O)=O)c4)ncc3F)cc2)no1 [Compound I-276, N2-(3-Aminosulfonyl)phenyl-5-fluoro-N4-[4-(5-methyl-1,2,4-oxadiazol-3-yl)methoxy]phenyl-2,4-pyrimidinediamine]
IC50 [1]: 135 nM | IC50 [2, 3]: 822 nM

Cc1nc(COc2ccc(Nc3nc(Nc4cccc(S(N)(=O)=O)c4)ncc3F)cc2)cs1 [Compound I-281, N2-(3-Aminosulfonylphenyl)-5-fluoro-N4-[4-(2-methylthiazol-4-yl)methyleneoxyphenyl]-2,4-pyrimidinediamine]
IC50 [1]: 93.2 nM | IC50 [2, 3]: 975 nM

N#CCCc1ccc(Nc2nc(Nc3cccc(S(N)(=O)=O)c3)ncc2F)cc1C(F)(F)F [III-31, N4-(4-Cyanoethylene-3-trifluoromethylphenyl)-5-fluoro-N2-(3-aminosulfonylphenyl)-2,4-pyrimidinediamine]
IC50 [1]: 95.4 nM | IC50 [2, 3]: 1700 nM

CNS(=O)(=O)c1cc(Nc2ncc(F)c(Nc3ccc(OCc4nc(C)no4)cc3)n2)ccc1C [Compound I-260, 5-Fluoro-N2-[3-N-(methyl)aminosulfonyl-4-methylphenyl)-N4-[4-(3-methyl-1,2,4-oxadiazol-5-yl)methyleneoxyphenyl]-2,4-pyrimidinediamine]
IC50 [1]: 94.8 nM | IC50 [2, 3]: 985 nM

CCN(CC)CCNS(=O)(=O)c1ccc(Nc2ncc(F)c(Nc3cccc(OCc4nc(C)no4)c3)n2)cc1 [Compound I-256, N2-[4-(2-N,N-Diethylaminoethyl)aminosulfonylphenyl)-5-fluoro-N4-[3-(3-methyl-1,2,4-oxadiazol-5-yl)methyleneoxyphenyl]-2,4-pyrimidinediamine]
IC50 [1]: 282 nM | IC50 [2, 3]: 15900 nM

N#CCOc1ccc(Nc2nc(Nc3ccc(F)c(S(N)(=O)=O)c3)ncc2F)cc1 [Compound I-33, N2-(3-Aminosulfonyl-4-fluoro)phenyl-N4-(4-cyanomethoxy)phenyl-5-fluoro-2,4-pyrimidinediamine]
IC50 [1]: 96.5 nM | IC50 [2, 3]: 897 nM

N#CCCc1ccc(Nc2nc(Nc3cccc(S(N)(=O)=O)c3)ncc2F)cc1 [III-14, N2-(3-aminosulfonylphenyl)-N4-[4-(cyanoethylene)phenyl]-5-fluoro-2,4-pyrimidinediamine]
IC50 [1]: 140 nM | IC50 [2, 3]: 585 nM

Cc1ccc(Nc2ncc(F)c(Nc3cccc(CNC(=O)C4CC4)c3)n2)cc1S(N)(=O)=O [III-40, N2-(3-aminosulfonyl-4-methyl)phenyl-N4-(3-cyclopropylcarbonylaminomethyl)phenyl-5-fluoro-2,4-pyrimidinediamine]
IC50 [1]: 134 nM | IC50 [2, 3]: 1120 nM

Cc1noc(COc2ccc(Nc3nc(Nc4ccc(F)c(S(N)(=O)=O)c4)ncc3F)cc2)n1 [Compound I-266, N2-(3-Aminosulfonyl-4-fluorophenyl)-5-fluoro-N4-[4-(3-methyl-1,2,4-oxadiazol-5-yl)methyleneoxyphenyl]-2,4-pyrimidinediamine]
IC50 [1]: 85.1 nM | IC50 [2, 3]: 824 nM
